We go through 22 molecules from patent US9694016B2 (Novartis AG, priority 2013, dated 2017).

The structures appear in SMILES notation.

Sequence of b-Raf (V600E) (P15056 whole entry V600E): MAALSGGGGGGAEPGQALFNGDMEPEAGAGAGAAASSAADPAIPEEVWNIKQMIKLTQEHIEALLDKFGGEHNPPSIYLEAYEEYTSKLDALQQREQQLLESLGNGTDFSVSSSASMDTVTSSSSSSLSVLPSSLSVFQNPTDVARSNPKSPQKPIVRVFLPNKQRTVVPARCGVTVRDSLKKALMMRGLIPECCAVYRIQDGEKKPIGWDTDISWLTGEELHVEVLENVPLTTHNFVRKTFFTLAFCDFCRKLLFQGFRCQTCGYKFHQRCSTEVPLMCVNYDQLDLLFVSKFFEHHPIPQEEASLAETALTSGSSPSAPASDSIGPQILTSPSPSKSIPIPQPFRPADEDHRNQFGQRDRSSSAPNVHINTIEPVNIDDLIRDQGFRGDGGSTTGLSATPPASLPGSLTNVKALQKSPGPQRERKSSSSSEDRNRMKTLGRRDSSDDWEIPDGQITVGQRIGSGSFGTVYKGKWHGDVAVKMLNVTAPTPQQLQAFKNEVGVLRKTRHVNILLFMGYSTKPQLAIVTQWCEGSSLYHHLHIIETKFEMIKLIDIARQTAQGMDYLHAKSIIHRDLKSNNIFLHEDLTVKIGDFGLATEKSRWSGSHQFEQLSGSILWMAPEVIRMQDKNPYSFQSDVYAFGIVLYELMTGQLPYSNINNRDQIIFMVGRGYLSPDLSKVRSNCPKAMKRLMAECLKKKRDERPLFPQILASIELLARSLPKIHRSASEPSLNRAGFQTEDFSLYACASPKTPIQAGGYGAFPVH

This assay concerns the target b-Raf (V600E) (Homo sapiens (Human), UniProt P15056, V600E). As to conditions: read-out: b-Raf IC-50; AlphaScreen, 60 min pre-incubation, 3 hours reaction. For orientation: Bead proximity is the source of the signal in Alpha formats.
Turning to `CCOc1nnc(-c2cc(NC(=O)c3cnnc(C(F)(F)F)c3)cnc2C)cc1N1CCOCC1` [Example 614, N-(5-(6-ethoxy-5-morpholinopyridazin-3-yl)-6-methylpyridin-3-yl)-6-(trifluoromethyl)pyridazine-4-carboxamide], the IC50 turned out to be 4.2 nM.

Regarding `CCOc1nnc(-c2cc(NC(=O)c3ccnc(S(C)(=O)=O)c3)cnc2C)cc1N1CCOCC1` [Example 615, N-(5-(6-ethoxy-5-morpholinopyridazin-3-yl)-6-methylpyridin-3-yl)-2-(methylsulfonyl)isonicotinamide], the IC50 was determined as 12.3 nM. Turning to `CCOc1nnc(-c2cc(NC(=O)c3ccnc(C(F)(F)F)c3)cnc2C)cc1N1CCOCC1` [Example 616, N-(5-(6-ethoxy-5-morpholinopyridazin-3-yl)-6-methylpyridin-3-yl)-2-(trifluoromethyl)isonicotinamide], the IC50 amounted to 1.6 nM. Then `CCOc1nnc(-c2cc(NC(=O)c3ccnc(C(F)(F)CC)c3)cnc2C)cc1N1CCOCC1` [Example 617, 2-(1,1-difluoropropyl)-N-(5-(6-ethoxy-5-morpholinopyridazin-3-yl)-6-methylpyridin-3-yl)isonicotinamide], with 3.5 nM; and `CCOc1nnc(-c2cc(NC(=O)c3cccc(S(C)(=O)=O)c3)cnc2C)cc1N1CCOCC1` [Example 618, N-(5-(6-ethoxy-5-morpholinopyridazin-3-yl)-6-methylpyridin-3-yl)-3-(methylsulfonyl)benzamide], with 5 nM; and `CCOc1nnc(-c2cc(NC(=O)c3ccnc(C(C)(F)F)c3)cnc2C)cc1N1CCOCC1` [Example 620, 2-(1,1-difluoroethyl)-N-(5-(6-ethoxy-5-morpholinopyridazin-3-yl)-6-methylpyridin-3-yl)isonicotinamide], with 1.9 nM.

With `CCOc1nnc(-c2cc(NC(=O)c3ccnc(C(C)C)c3)cnc2C)cc1N1CCOCC1` [Example 621, N-(5-(6-ethoxy-5-morpholinopyridazin-3-yl)-6-methylpyridin-3-yl)-2-isopropylisonicotinamide], the IC50 came to 2.6 nM. For the molecule `CCOc1nnc(-c2cc(NC(=O)c3cccc(C(F)(F)F)c3)cnc2C)cc1N1CCOC[C@H]1C` [Example 622, (R)—N-(5-(6-ethoxy-5-(3-methylmorpholino)pyridazin-3-yl)-6-methylpyridin-3-yl)-3-(trifluoromethyl)benzamide], the IC50 worked out at 4.9 nM. In the case of `CCOc1nnc(-c2cc(NC(=O)c3ccnc(C(C)(C)C#N)c3)cnc2C)cc1N1CCOC[C@H]1C` [Example 623, (R)-2-(2-cyanopropan-2-yl)-N-(5-(6-ethoxy-5-(3-methylmorpholino)pyridazin-3-yl)-6-methylpyridin-3-yl)isonicotinamide], the IC50 is 56.7 nM. The value for `CCOc1nnc(-c2cc(NC(=O)c3ccnc(C(C)(C)C#N)c3)ccc2C)cc1N1CCOC[C@H]1C` [Example 624, (R)-2-(2-cyanopropan-2-yl)-N-(3-(6-ethoxy-5-(3-methylmorpholino)pyridazin-3-yl)-4-methylphenyl)isonicotinamide] was 4.7 nM; that for `CCOc1nnc(-c2cc(NC(=O)c3ccc(CNC)c(C(F)(F)F)c3)cnc2C)cc1N1CCOCC1` [Example 626, N-(5-(6-ethoxy-5-morpholinopyridazin-3-yl)-6-methylpyridin-3-yl)-4-((methylamino)methyl)-3-(trifluoromethyl)benzamide] was 14 nM; that for `CCOc1nnc(-c2cc(NC(=O)c3ccc(CO)c(C(F)(F)F)c3)cnc2C)cc1N1CCOCC1` [Example 627, N-(5-(6-ethoxy-5-morpholinopyridazin-3-yl)-6-methylpyridin-3-yl)-4-(hydroxymethyl)-3-(trifluoromethyl)benzamide] was 3.7 nM. The value for `Cc1ncc(NC(=O)c2ccnc(C(C)(F)F)c2)cc1-c1cc(N2CCOCC2)c(OC2CCOCC2)nn1` [Example 628, 2-(1,1-difluoroethyl)-N-(6-methyl-5-(5-morpholino-6-((tetrahydro-2H-pyran-4-yl)oxy)pyridazin-3-yl)pyridin-3-yl)isonicotinamide] was 1.8 nM; that for `Cc1ncc(NC(=O)c2cc(C(F)(F)F)ccn2)cc1-c1cc(N2CCOCC2)c(OC2CCOCC2)nn1` [Example 629, N-(6-methyl-5-(5-morpholino-6-((tetrahydro-2H-pyran-4-yl)oxy)pyridazin-3-yl)pyridin-3-yl)-4-(trifluoromethyl)picolinamide] was 1.2 nM. Then `Cc1ncc(NC(=O)c2ccnc(C(C)(C)F)c2)cc1-c1cc(N2CCOCC2)c(OC2CCOCC2)nn1` [Example 630, 2-(2-fluoropropan-2-yl)-N-(6-methyl-5-(5-morpholino-6-((tetrahydro-2H-pyran-4-yl)oxy)pyridazin-3-yl)pyridin-3-yl)isonicotinamide], with 2.9 nM; and `Cc1ncc(NC(=O)c2cnnc(C(F)(F)F)c2)cc1-c1cc(N2CCOCC2)c(OC2CCOCC2)nn1` [Example 631, N-(6-methyl-5-(5-morpholino-6-((tetrahydro-2H-pyran-4-yl)oxy)pyridazin-3-yl)pyridin-3-yl)-6-(trifluoromethyl)pyridazine-4-carboxamide], with 2.7 nM. With `Cc1ncc(NC(=O)c2ccnc(S(C)(=O)=O)c2)cc1-c1cc(N2CCOCC2)c(OC2CCOCC2)nn1` [Example 632, N-(6-methyl-5-(5-morpholino-6-((tetrahydro-2H-pyran-4-yl)oxy)pyridazin-3-yl)pyridin-3-yl)-2-(methylsulfonyl)isonicotinamide], the IC50 was 7.5 nM. The value for `Cc1ncc(NC(=O)c2ccnc(C(C)(C)C#N)c2)cc1-c1cc(N2CCOCC2)c(OC2CCOCC2)nn1` [Example 633, 2-(2-cyanopropan-2-yl)-N-(6-methyl-5-(5-morpholino-6-((tetrahydro-2H-pyran-4-yl)oxy)pyridazin-3-yl)pyridin-3-yl)isonicotinamide] was 7.2 nM; that for `Cc1ncc(NC(=O)c2ccnc(C(C)(C)O)c2)cc1-c1cc(N2CCOCC2)c(OC2CCOCC2)nn1` [Example 634, 2-(2-hydroxypropan-2-yl)-N-(6-methyl-5-(5-morpholino-6-((tetrahydro-2H-pyran-4-yl)oxy)pyridazin-3-yl)pyridin-3-yl)isonicotinamide] was 17.1 nM. Then `Cc1ncc(NC(=O)c2cccc(C(F)(F)F)c2)cc1-c1cc(N2CCOCC2)c(OC2CCOCC2)nn1` [Example 636, N-(6-methyl-5-(5-morpholino-6-((tetrahydro-2H-pyran-4-yl)oxy)pyridazin-3-yl)pyridin-3-yl)-3-(trifluoromethyl)benzamide], with 1.3 nM; and `Cc1ccc(NC(=O)c2cccc(C(C)(C)S(C)(=O)=O)c2)cc1-c1cc(N2CCOCC2)c(=O)n(C)n1` [Example 637, N-(4-methyl-3-(1-methyl-5-morpholino-6-oxo-1,6-dihydropyridazin-3-yl)phenyl)-3-(2-(methylsulfonyl)propan-2-yl)benzamide], with 24.9 nM; and `Cc1ccc(NC(=O)c2ccnc(C(C)(C)O)c2)cc1-c1cc(N2CCOCC2)c(=O)n(C)n1` [Example 638, 2-(2-hydroxypropan-2-yl)-N-(4-methyl-3-(1-methyl-5-morpholino-6-oxo-1,6-dihydropyridazin-3-yl)phenyl)isonicotinamide], with 9.6 nM.
